Source: patent publication US20060069132A1, “Azolecarboxamide herbicides” (priority 2004, published 2006)
Like-named read-outs stand apart in the source and are kept apart here.

Tests used:
morningglory = experiment: Test C pre-/postemergence herbicide test; type: in vivo, Ipomoea coccinea
Procedure, shortened: (§1)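 Emerged plants at the 1- to 4-leaf stage (2–18 cm), or freshly planted seeds, received test chemicals in a non-phytotoxic solvent mixture with surfactant. Response was visually scored against controls after 12 to 14 days in the greenhouse, on a 0 (no effect) to 100 (complete control) scale.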

common ragweed = experiment: Test C pre-/postemergence herbicide test; type: in vivo, Ambrosia elatior; details: for pest or weed control at 125 g/ha: 125 g ai/ha
Procedure, shortened: as §1

yellow nutsedge = experiment: Test C pre-/postemergence herbicide test; type: in vivo, Cyperus esculentus; details: for pest or weed control at 125 g/ha: 125 g ai/ha
Procedure, shortened: as §1

ducksalad = experiment: Test C flooded paddy test; type: in vivo, Heteranthera limosa; details: Heteranthera limosa
barnyardgrass = experiment: Test C flooded paddy test; type: in vivo, Echinochloa crus-galli; details: Echinochloa crus-galli
Procedure, shortened: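 Greenhouse test with a 12–14 day hold after application and visual comparison with controls. Emerged plants were 1- to 4-leaf stage (2–18 cm) when sprayed postemergence, and the paddy barnyardgrass was at 2 leaves under flooded conditions. 100 = complete control.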

corn = experiment: Test C pre-/postemergence herbicide test; type: in vivo, Zea mays; details: for Corn plant response rating (crop injury, 0 = no effect, 100 = complete kill) at 250 g/ha: 250 g ai/ha; for Corn plant response rating (crop injury, 0 = no effect, 100 = complete kill) at 125 g/ha: 125 g ai/ha
Procedure, shortened: as §1

[1] = system: smallflower umbrella sedge; experiment: Test C flooded paddy test; type: in vivo, Cyperus difformis; details: Cyperus difformis, read-out: Sedge, Umbrella plant response rating

CCOC(=O)c1cccc(NC(=O)c2cc(C(C)(C)C)nn2CC)c1 [Compound 80, ethyl 3-[[[3-(1,1-dimethylethyl)-1-ethyl-1H-pyrazol-5-yl]carbonyl]-amino]benzoate]
Plant response rating (0 = no effect, 100 = complete control), Morningglory (morningglory; 62 g ai/ha, preemergence): 20 | pest or weed control at 250 g/ha (morningglory; Ipomoea, post-emergence, Postemergence, 250 g ai/ha, scale 0 to 100, 0 no effect, 100 complete control, read-out: Plant response rating, Morningglory): 90% | pest or weed control at 125 g/ha (morningglory; Ipomoea, post-emergence, postemergence, 125 g ai/ha, scale 0 to 100, read-out: Plant response rating, Morningglory): 90% | pest or weed control at 62 g/ha (morningglory; Ipomoea, post-emergence, postemergence, 62 g ai/ha, scale 0 to 100, read-out: Plant response rating, Morningglory): 90% | pest or weed control at 31 g/ha (morningglory; Ipomoea, pre-emergence, 31 g ai/ha, preemergence, scale 0 to 100, read-out: Plant response rating, Morningglory): 0% | Plant response rating (0 = no effect, 100 = complete control), Ragweed (common ragweed; 62 g ai/ha, preemergence): 0 | pest or weed control at 250 g/ha (common ragweed; Ambrosia artemisiifolia, post-emergence, Postemergence, 250 g ai/ha, scale 0 to 100, 0 no effect, 100 complete control, read-out: Plant response rating, Ragweed): 70% | pest or weed control at 125 g/ha (common ragweed; Ambrosia artemisiifolia, post-emergence, postemergence, scale 0 to 100, read-out: Plant response rating, Ragweed): 70% | pest or weed control at 62 g/ha (common ragweed; Ambrosia artemisiifolia, post-emergence, postemergence, 62 g ai/ha, scale 0 to 100, read-out: Plant response rating, Ragweed): 70% | pest or weed control at 31 g/ha (common ragweed; Ambrosia artemisiifolia, pre-emergence, 31 g ai/ha, preemergence, scale 0 to 100, read-out: Plant response rating, Ragweed): 0% | pest or weed control at 125 g/ha (common ragweed; Ambrosia artemisiifolia, pre-emergence, scale 0 (no effect) to 100 (complete control), visual, 12 to 14 days, read-out: Plant response rating, Ragweed): 0% | Plant response rating (0 = no effect, 100 = complete control), Nutsedge, Yellow (yellow nutsedge; 62 g ai/ha, preemergence): 0 | pest or weed control at 250 g/ha (yellow nutsedge; Cyperus, post-emergence, Postemergence, 250 g ai/ha, scale 0 to 100, 0 no effect, 100 complete control, read-out: Plant response rating, Nutsedge, Yellow): 40% | pest or weed control at 125 g/ha (yellow nutsedge; Cyperus, post-emergence, postemergence, scale 0 to 100, read-out: Plant response rating, Nutsedge, Yellow): 40% | pest or weed control at 62 g/ha (yellow nutsedge; Cyperus, post-emergence, postemergence, 62 g ai/ha, scale 0 to 100, read-out: Plant response rating, Nutsedge, Yellow): 40% | pest or weed control at 31 g/ha (yellow nutsedge; Cyperus, pre-emergence, 31 g ai/ha, preemergence, scale 0 to 100, read-out: Plant response rating, Nutsedge, Yellow): 0% | pest or weed control at 125 g/ha (yellow nutsedge; Cyperus, pre-emergence, scale 0 (no effect) to 100 (complete control), visual, 12 to 14 days, read-out: Plant response rating, Nutsedge, Yellow): 0% | pest or weed control at 62 g/ha (ducksalad; 62 g ai/ha, scale 0 to 100 (0 no effect, 100 complete control), read-out: Ducksalad plant response rating): 20% | pest or weed control at 125 g/ha (ducksalad; 125 g ai/ha, scale of 0 to 100, 0 is no effect, 100 is complete control, read-out: Ducksalad plant response rating): 20% | pest or weed control at 250 g/ha (ducksalad; 250 g ai/ha, scale of 0 to 100, 0 is no effect, 100 is complete control, read-out: Ducksalad plant response rating): 20% | pest or weed control at 500 g/ha (ducksalad; 500 g ai/ha, visual rating after 12 to 14 days, scale 0 to 100 (0 no effect, 100 complete control), read-out: Plant response rating, Ducksalad): 40% | pest or weed control at 62 g/ha (barnyardgrass; 62 g ai/ha, scale 0 to 100 (0 no effect, 100 complete control), read-out: Barnyardgrass plant response rating): 0% | pest or weed control at 125 g/ha (barnyardgrass; 125 g ai/ha, scale of 0 to 100, 0 is no effect, 100 is complete control, read-out: Barnyardgrass plant response rating): 20% | pest or weed control at 250 g/ha (barnyardgrass; 250 g ai/ha, scale of 0 to 100, 0 is no effect, 100 is complete control, read-out: Barnyardgrass plant response rating): 40% | pest or weed control at 500 g/ha (barnyardgrass; 500 g ai/ha, visual rating after 12 to 14 days, scale 0 to 100 (0 no effect, 100 complete control), read-out: Plant response rating, Barnyardgrass): 60% | Plant response rating (0 = no effect, 100 = complete control), Corn (corn; 62 g ai/ha, preemergence): 0 | Corn plant response rating (crop injury, 0 = no effect, 100 = complete kill) at 250 g/ha (corn; Zea mays, post-emergence, 312 h, Postemergence, scale 0 to 100, 0 no effect, 100 complete control): 70% | Corn plant response rating (crop injury, 0 = no effect, 100 = complete kill) at 125 g/ha (corn; Zea mays, post-emergence, 312 h, postemergence, scale 0 to 100): 70% | Corn plant response rating (crop injury, 0 = no effect, 100 = complete kill) at 62 g/ha (corn; Zea mays, post-emergence, 312 h, postemergence, 62 g ai/ha, scale 0 to 100): 70% | Corn plant response rating (crop injury, 0 = no effect, 100 = complete kill) at 31 g/ha (corn; Zea mays, pre-emergence, 312 h, 31 g ai/ha, preemergence, scale 0 to 100): 0% | Corn plant response rating (crop injury, 0 = no effect, 100 = complete kill) at 125 g/ha (corn; Zea mays, pre-emergence, 312 h, scale 0 (no effect) to 100 (complete control), visual, 12 to 14 days): 10% | Corn plant response rating (crop injury, 0 = no effect, 100 = complete kill) at 250 g/ha (corn; Zea mays, pre-emergence, 312 h, scale 0 to 100 (0 no effect, 100 complete control), visual, 12 to 14 days): 20% | pest or weed control at 62 g/ha ([1]; 62 g ai/ha, scale 0 to 100 (0 no effect, 100 complete control)): 70% | pest or weed control at 125 g/ha ([1]; 125 g ai/ha, scale of 0 to 100, 0 is no effect, 100 is complete control): 70% | pest or weed control at 250 g/ha ([1]; 250 g ai/ha, scale of 0 to 100, 0 is no effect, 100 is complete control): 70%
